From patent US11154563B2, “Immunoproteasome inhibitors” (Principia Biopharma Inc., priority 2017, dated 2021) come the findings set out here.

Assay [1] concerns the target immunoproteasome LMP7/B5i subunit (Homo sapiens, UniProt P20618+P28062). The assay is described as follows: Caliper-based proteasome enzymatic activity assay, LMP7. To be noted: human recombinant immunoproteasome 0.3 nM, FAM-peptide substrate 1 μM, 3 h at rt. Type of assay: biochemical. As to the method: (§1) A Caliper-based proteasome assay (Caliper Life Sciences, Hopkinton, Mass.) was used to measure inhibition of the immunoproteasome LMP7/B5i subunit, the immunoproteasome LPM2/β1i subunit, and the constitutive proteasome β5c unit for a compound of Formula (I). For LMP7 and β5c, serial dilutions of test compounds were incubated with either human recombinant immunoprotcasome or constitutive proteasome (0.3 nM enzyme) and a carboxyfluorescein (FAM)-labeled peptide substrate FAM-TYETFKSIMKKSPF-NH2 (1 μM) at it for 3 h. The reaction was then terminated with a buffer containing the known proteasome inhibitor carfilzomib at a concentration of 5 uM. For LMP2, serial dilutions of test compounds were incubated with human recombinant immunoproteasome proteasome (0.3 nM enzyme) and a carboxyfluorescein (FAM)-labeled peptide substrate FAM-[…]-NH2 (1 μM) at rt for 2 h. The reaction was then terminated with a buffer containing the known proteasome inhibitor ixazomib at a concentration of 6.7 uM. The reaction buffer was 20 mM Hepes pH 7.4, 0.01% bovine serum albumin, 0.015% SDS, 0.5 mM EDTA, 1%0/DMSO. The peptide cleavage reaction product was quantified on a Caliper LabChip 3000. Percent inhibition was calculated for each compound dilution and the concentration that produced 50% inhibition was calculated. This value is presented as the IC50.

For assay [2], the target named is constitutive proteasome β5c unit (Homo sapiens, UniProt P20618+P28074). The assay is described as follows: Caliper-based proteasome enzymatic activity assay, β5c. It is filed as biochemical. To be noted: human recombinant constitutive proteasome 0.3 nM, FAM-peptide substrate 1 μM, 3 h at rt; read-out: β5c subunit IC50. As to the method: as §1

For orientation: IC50 means the concentration at which inhibition is half-maximal.

Take `CC(C)(C=C(C#N)C(=O)N1CCCC[C@@H]1COC(=O)N[C@@H](Cc1ccccc1)B(O)O)N1CCN(C2COC2)CC1` [Example 126, ((R)-1-(((((R)-1-(2-cyano-4-methyl-4-(4-(oxetan-3-yl)piperazin-1-yl)pent-2-enoyl)piperidin-2-yl)methoxy)carbonyl)amino)-2-phenylethyl)boronic acid]: the IC50 in assay [1] is 21 nM; in assay [2], above 5000 nM.

Turning to `CC(C)(C)/C=C(\C#N)C(=O)N1CC(F)(F)C[C@@H]1COC(=O)N[C@@H](Cc1ccccc1)B(O)O` [Example 61, ((R)-1-(((((R)-1-((E)-2-cyano-4,4-dimethylpent-2-enoyl)-4,4-difluoropyrrolidin-2-yl)methoxy)carbonyl)amino)-2-phenylethyl)boronic acid], the IC50 is 1.4 nM in assay [1] and 1490 nM in assay [2].

Take `CC(C)(C)C=C(C#N)C(=O)N1C[C@@H]2C[C@@H]2[C@@H]1COC(=O)N[C@@H](Cc1coc2ccccc12)B(O)O` [Example 48, ((R)-2-(benzofuran-3-yl)-1-(((((1S,2R,5R)-3-(2-cyano-4,4-dimethylpent-2-enoyl)-3-azabicyclo[3.1.0]hexan-2-yl)methoxy)carbonyl)amino)ethyl)boronic acid]: the half-maximal inhibitory concentration (IC50) in assay [1] turned out to be 0.6 nM; in assay [2], 115 nM.

Regarding `CC(C)(C=C(C#N)C(=O)N1CCC[C@]1(C)COC(=O)N[C@@H](Cc1ccc(F)cc1)B(O)O)N1CCC(F)(F)C1` [Example 120, ((R)-1-(((((R)-1-(2-cyano-4-(3,3-difluoropyrrolidin-1-yl)-4-methylpent-2-enoyl)-2-methylpyrrolidin-2-yl)methoxy)carbonyl)amino)-2-(4-fluorophenyl)ethyl)boronic acid], the IC50 in assay [1] is 530 nM; in assay [2], above 5000 nM.

For the molecule `CC(C)(C=C(C#N)C(=O)N1CCOC[C@@H]1COC(=O)N[C@@H](Cc1coc2ccccc12)B(O)O)N1CCOCC1` [Example 58, ((R)-2-(benzofuran-3-yl)-1-(((((R)-4-(2-cyano-4-methyl-4-morpholinopent-2-enoyl)morpholin-3-yl)methoxy)carbonyl)amino)ethyl)boronic acid], the IC50 in assay [1] worked out at 0.8 nM; in assay [2], 23 nM.

Take `CC(C)(C=C(C#N)C(=O)N1CCCC[C@]1(C)COC(=O)N[C@@H](Cc1ccccc1)B(O)O)N1CCC(F)(F)C1` [Example 129, ((R)-1-(((((R)-1-(2-cyano-4-(3,3-difluoropyrrolidin-1-yl)-4-methylpent-2-enoyl)-2-methylpiperidin-2-yl)methoxy)carbonyl)amino)-2-phenylethyl)boronic acid]: the IC50 in assay [1] was 2 nM; in assay [2], 1940 nM.

On to `C=CC(=O)N1CCOC[C@@H]1COC(=O)N[C@@H](Cc1coc2ccccc12)B(O)O` [Example 93, ((R)-1-(((((R)-4-acryloylmorpholin-3-yl)methoxy)carbonyl)amino)-2-(benzofuran-3-yl)ethyl)boronic acid], for which the IC50 in assay [1] came to 3 nM; in assay [2], 165 nM.

On to `Cc1ccc(C[C@H](NC(=O)OC[C@H]2CCCCN2C(=O)C(C#N)=CC(C)(C)N2CCOCC2)B(O)O)cc1` [Example 45, ((R)-1-(((((R)-1-(2-cyano-4-methyl-4-morpholinopent-2-enoyl)piperidin-2-yl)methoxy)carbonyl)amino)-2-(p-tolyl)ethyl)boronic acid], for which the IC50 in assay [1] turned out to be 4 nM; in assay [2] it was 854 nM.

As to `CC1(C=C(C#N)C(=O)N2C[C@@H]3C[C@@H]3[C@@H]2COC(=O)N[C@@H](Cc2ccc(F)cc2)B(O)O)CCOCC1` [Example 119, ((R)-1-(((((1S,2R,5R)-3-(2-cyano-3-(4-methyltetrahydro-2H-pyran-4-yl)acryloyl)-3-azabicyclo[3.1.0]hexan-2-yl)methoxy)carbonyl)amino)-2-(4-fluorophenyl)ethyl)boronic acid], the IC50 in assay [1] and in assay [2] was above 5000 nM each time.

For `CC(C)(C=C(C#N)C(=O)N1CCCCC[C@@H]1COC(=O)N[C@@H](Cc1coc2ccccc12)B(O)O)N1CCC(F)(F)C1` [Example 72, ((R)-2-(benzofuran-3-yl)-1-(((((R)-1-(2-cyano-4-(3,3-difluoropyrrolidin-1-yl)-4-methylpent-2-enoyl)azepan-2-yl)methoxy)carbonyl)amino)ethyl)boronic acid], the concentration for half-maximal inhibition (IC50) in assay [1] was 2.5 nM; in assay [2], 225 nM.

`CC(C)(/C=C(/C#N)C(=O)N1CCCC[C@@H]1COC(=O)N[C@@H](Cc1ccccc1)B(O)O)N1CCC(F)(F)C1` [Example 103, ((R)-1-(((((R)-1-((Z)-2-cyano-4-(3,3-difluoropyrrolidin-1-yl)-4-methylpent-2-enoyl)piperidin-2-yl)methoxy)carbonyl)amino)-2-phenylethyl)boronic acid]: the IC50 in assay [1] amounted to 5.3 nM; in assay [2], 2310 nM.

For `CC(C)(C=C(C#N)C(=O)N1CCOC[C@@H]1COC(=O)N[C@@H](Cc1coc2ccccc12)B(O)O)N1CCC(F)(F)C1` [Example 65, ((R)-2-(benzofuran-3-yl)-1-(((((R)-4-(2-cyano-4-(3,3-difluoropyrrolidin-1-yl)-4-methylpent-2-enoyl)morpholin-3-yl)methoxy)carbonyl)amino)ethyl)boronic acid], the IC50 in assay [1] is 2.3 nM; in assay [2] it was 60 nM.

Regarding `CC(C)(C)/C=C(\C#N)C(=O)N1CCNC[C@@H]1COC(=O)N[C@@H](Cc1ccccc1)B(O)O` [Example 128, ((R)-1-(((((R)-1-((E)-2-cyano-4,4-dimethylpent-2-enoyl)piperazin-2-yl)methoxy)carbonyl)amino)-2-phenylethyl)boronic acid], the half-inhibitory concentration (IC50) in assay [1] worked out at 2.3 nM; in assay [2], 2730 nM.

For the molecule `CC(C)(C=C(C#N)C(=O)N1CCCC[C@@H]1COC(=O)N[C@@H](CCc1ccccc1)B(O)O)N1CCC(F)(F)C1` [Example 101, ((R)-1-(((((R)-1-(2-cyano-4-(3,3-difluoropyrrolidin-1-yl)-4-methylpent-2-enoyl)piperidin-2-yl)methoxy)carbonyl)amino)-3-phenylpropyl)boronic acid], the values for the half-maximal inhibitory concentration (IC50) in assay [1] and in assay [2] were 1.7 nM and above 5000 nM, respectively.

With `CC(C)(C=C(C#N)C(=O)N1C[C@@H]2C[C@@H]2[C@@H]1COC(=O)N[C@@H](CCc1ccccc1)B(O)O)N1CCC(F)(F)C1` [Example 104, ((R)-1-(((((1S,2R,5R)-3-(2-cyano-4-(3,3-difluoropyrrolidin-1-yl)-4-methylpent-2-enoyl)-3-azabicyclo[3.1.0]hexan-2-yl)methoxy)carbonyl)amino)-3-phenylpropyl)boronic acid], the values for the IC50 in assay [1] and in assay [2] were 1.4 nM and above 5000 nM, respectively.

As for `CC(C)(C=C(C#N)C(=O)N1CCCC[C@@H]1COC(=O)N[C@@H](Cc1ccccc1C(F)(F)F)B(O)O)N1CCC(F)(F)C1` [Example 110, ((R)-1-(((((R)-1-(2-cyano-4-(3,3-difluoropyrrolidin-1-yl)-4-methylpent-2-enoyl)piperidin-2-yl)methoxy)carbonyl)amino)-2-(2-(trifluoromethyl)phenyl)ethyl)boronic acid], the half-maximal inhibitory concentration (IC50) is 22 nM in assay [1] and above 5000 nM in assay [2].

Consider `CC(C)(C=C(C#N)C(=O)N1CCCC[C@@H]1COC(=O)N[C@@H](Cc1ccc(F)cc1F)B(O)O)N1CCC(F)(F)C1` [Example 113, ((R)-1-(((((R)-1-(2-cyano-4-(3,3-difluoropyrrolidin-1-yl)-4-methylpent-2-enoyl)piperidin-2-yl)methoxy)carbonyl)amino)-2-(2,4-difluorophenyl)ethyl)boronic acid], for which the IC50 in assay [1] and in assay [2] was above 5000 nM each time.

As for `CC(C)(C=C(C#N)C(=O)N1CCCC[C@@H]1COC(=O)N[C@@H](Cc1ccc(C#N)cc1)B(O)O)N1CCC(F)(F)C1` [Example 122, ((R)-1-(((((R)-1-(2-cyano-4-(3,3-difluoropyrrolidin-1-yl)-4-methylpent-2-enoyl)piperidin-2-yl)methoxy)carbonyl)amino)-2-(4-cyanophenyl)ethyl)boronic acid], the IC50 was 1.5 nM in assay [1] and 4180 nM in assay [2].

For `CC(C)(C=C(C#N)C(=O)N1CCCC[C@@H]1COC(=O)N[C@@H](Cc1ccccc1C#N)B(O)O)N1CCC(F)(F)C1` [Example 107, ((R)-1-(((((R)-1-(2-cyano-4-(3,3-difluoropyrrolidin-1-yl)-4-methylpent-2-enoyl)piperidin-2-yl)methoxy)carbonyl)amino)-2-(2-cyanophenyl)ethyl)boronic acid], the figures for the half-inhibitory concentration (IC50) in assay [1] and in assay [2] were 111 nM and above 5000 nM, respectively.

Regarding `CC(C)(C=C(C#N)C(=O)N1CCCC[C@@H]1COC(=O)N[C@@H](Cc1coc2ccccc12)B(O)O)N1CCOCC1` [Example 46, ((R)-2-(benzofuran-3-yl)-1-(((((R)-1-(2-cyano-4-methyl-4-morpholinopent-2-enoyl)piperidin-2-yl)methoxy)carbonyl)amino)ethyl)boronic acid], the 50% inhibitory concentration (IC50) stood at 1 nM in assay [1] and 187 nM in assay [2].
